Data set [1] can be described thus: safety testing of cosmetic grade cytomodulin as a topically administered ingredient. From the text:
In particular, the heptapeptide TGF-β mimic, A-N-V-A-E-N-A (SEQ ID NO: 1), termed “cytomodulin,” has been examined and tested as an ingredient in compositions with the potential for improving the condition of skin upon application; a cosmetic grade cytomodulin was first synthesized according to U.S. Pat. No. 5,661,127 and subsequently tested to ensure both its efficacy and safety as a topically administered ingredient.

The next data set relates to TGF-β. The data set is described as follows: TGF-β like activity of cytomodulin analogs. Conditions: compared with TGF-β and cytomodulin. The text has this: As first introduced in the present inventor's U.S. Pat. No. 5,780,436, which is hereby incorporated by reference in its entirety, using cytomudulin as a guide, two initial cytomodulin analogs, L-I-A-E-A-K (SEQ ID NO: 2) and L-I-A-P-E-A (SEQ ID NO: 3) were designed, synthesized, and tested. In both peptides, -V-A-, was replaced by -I-A- and the first two N-terminal amino acid sequence of cytomodulin was replaced with leucine. In SEQ ID NO: 2, glutamic acid is at position i+3 since it is the first side-chain after the β-bend structure. In SEQ ID NO: 3, proline is at position i+3.
Analogs of SEQ ID NO: 2 and SEQ ID NO: 3 were made to further probe the sequence requirements for TGF-β like activity. To that end, the following peptides were made:
SEQ ID NOs 4-6, which are minor variants of SEQ ID NO: 2, mimicked the biological activities of TGF-β and cytomodulin. […] Alternatively, all peptides with the sequences represented by SEQ ID NOs: 9-16 mimicked at least one biological activity of TGF-β to some degree.

Residues, ends and D or L forms follow the SMILES beside them.

`CC(C)[C@H](NC(=O)[C@H](CC(N)=O)NC(=O)[C@H](C)N)C(=O)N[C@@H](C)C(=O)N[C@@H](CCC(=O)O)C(=O)N[C@@H](CC(N)=O)C(=O)N[C@@H](C)C(=O)O` [cytomodulin, A-N-V-A-E-N-A] (H-ANVAENA-OH): in data set [1], the toxicity result was “completely non-toxic”.
On to “L-I-A-E-A-K (LIAEAK; TGF-beta mimic) [SEQ ID NO: 2, cytomodulin analog]”, for which, in the data set on TGF-β, the TGF-β like activity entry was “at least as much TGF-β like activity as cytomodulin”.
Take “L-I-A-P-E-A (LIAPEA; TGF-beta mimic) [SEQ ID NO: 3, cytomodulin analog]”: in the data set with TGF-β, the TGF-β like activity result is listed as “at least as much TGF-β like activity as cytomodulin”.

(Values after patent publication US20160151270A1, “Peptide-Based Compositions and Methods of Use” (Geoffrey Brooks Consultants LLC, priority 2014, published 2016).)
